Measured values reported in US20080220056A1, “Treatment for liver disease” (UNIVERSITY OF SOUTHAMPTON, priority 2002, published 2008).
Square brackets hold non-standard residues; d marks the D form. Peptide text beside a SMILES is read from it. * marks the point of attachment. Nle = CCCC[C@H](N)C(=O)O; Cbz = O=C(OCc1ccccc1)*; CH2F = FC*

Key:
Type in all cases: cell-based
[1] = test system: rat hepatic stellate cells; assay: Low molecular weight DNA fragmentation (nucleosomal ladder) in rat hepatic stellate cells; settings: four hours; for effect on gliotoxin-induced cleavage of DNA to a nucleosomal ladder: with 1.5 μmol/L gliotoxin, PDTC 300 μmol/L, tamoxifen 100 μmol/L, m-IBG 250 (mmol/L in the source), cyclosporin 10 μmol/L, quin-2-am 50 μmol/L
Procedure: (§1) Hepatic stellate cells cultured in 35-mm diameter dishes (Greiner) were harvested, pelleted by centrifugation and DNA fragmentation determined as outlined elsewhere (Elsharkawy et al., Hepatology (1999) 30:761-769). Propidium Iodide Flow-Activated Cell Sorting Analysis Detached cells were pelleted by centrifugation, washed in PBS, and resuspended in HYPO buffer (0.1% wt/vol) Na3Citrate and 0.1% (wt/vol) Triton™ X-100 containing […] propidium iodide and incubated for 1 hour. The cells were then analyzed by fluorescence-activated cell sorter (FACS) with a Becton Dickinson (San Jose, Calif.) FACScan instrument using a 488 nm excitation wavelength with a band pass filter set at 530 nm. Attached cells were scraped in HYPO buffer after washing cells with PBS.
The effect of gliotoxin on the cleavage of DNA to a nucleosomal ladder was examined because this phenomenon is characteristic of apoptosis. Culture activated (14-day) rat hepatic stellate cells in six well plates were treated with either 0.05% (vol/vol) DMSO for four hours or 1.5 μmol/L gliotoxin for zero hours, half an hour, one hour, two hours or four hours. At each time point, both detached and attached cells were harvested together and low molecular weight DNA (20,000 g supernatant) fragmentation determined as outlined in the materials and methods section. At least three separate experiments were performed. 1 kilobase DNA ladder (Promega) was used as a molecular weight marker.
The effect of various compounds on DNA laddering was then determined. Culture-activated (14-day) rat hepatic stellate cells in six-well plates were treated with:
After fours hours of treatment, DNA fragmentation was determined.
Culture activated (14 day) rat hepatic stellate cells in six well plates were treated with: • (a) 0.05% (vol/vol) DMSO; • (b) 1.5 μmol/L gliotoxin; • (c) 1.5 μmol/L gliotoxin with 100 μmol/L tamoxifen; • (d) 1.5 μmol/L gliotoxin with […] actinomycin d; • (e) 1.5 μmol/L gliotoxin with 10 μmol/L cycloheximide; • (f) 1.5 μmol/L gliotoxin with 10 μmol/L cyclosporin; • (g) 1.5 μmol/L gliotoxin with […] m-iodobenzylguanidine; • (h) 1.5 μmol/L gliotoxin with 50 μmol/L quin-2-am; • (i) 50 μmol/L guin-2-am alone; • (j) 250 μmol/L m-iodobenzylguanidine; • (k) 10 μmol/L cyclosporin; • (l) 10 μmol/L cycloheximide; • (m) 1 μg/ml actinomycin d; or • (n) 100 μmol/L tamoxifen.
After four hours of treatment, DNA fragmentation was determined as outlined in Materials and Methods.

[2] = test system: rat hepatic stellate cells; assay: Morphology and detachment of culture-activated rat hepatic stellate cells (light microscopy); settings: rat HSC; for effect on morphologic alterations / detachment caused by gliotoxin: with 1.5 μmol/L gliotoxin, Z-VAD-FMK 100 μmol/L, PDTC 300 μmol/L, tamoxifen 100 μmol/L, m-IBG 250 (mmol/L in the source), quin-2-am 50 μmol/L
Source text: Rat hepatic stellate cells (HSCs) were isolated by pronase/collagenase perfusion and purified by isopycnic density centrifugation in Opti-prep™ (Nycomed, Amersham, England) and elutriation essentially as previously described (Bahr et al., Hepatology (1999) 29:839-848). Human hepatic stellate cells were isolated from discarded resected liver via a similar protocol (Trim et al., J. Biol. Chem., (2000) 275:6657-6663). The use of human liver tissue for scientific investigation was approved by the UK South and West Local Research Ethics Committee and was subject to patient consent.
It has been shown recently that liver myofibroblasts may contribute to liver fibrogenesis and that liver myofibroblasts may have the potential to contaminate passaged hepatic stellate cell cultures (Knittel et al., Gastronenterology, (1999) 117:1205-1221). In this study, only primary cultures of hepatic stellate cells were used, which were desmin and glial fibrillary acid protein positive (markers shown to be expressed in hepatic stellate cells, but not liver myofibroblasts—Knittel et al., supra).
(§2) Cells were treated with gliotoxin dissolved in DMSO vehicle (added to medium from a 2000-fold molar concentrated stock). Control cells received DMSO vehicle only (i.e., 0.05% vol/vol). All other additions to culture medium were made from concentrated stocks dissolved in DMSO or by direct addition to culture medium. Protein contents of wells were determined using the Lowry assay (Lowry et al., J. Biol. Chem., (1951)193: 265-275).
Culture activated rat (14 day) and human (24 day) hepatic stellate cells were treated with DMSO solvent control or 1.5 μMol/L gliotoxin. […] Hepatic stellate cells changed from a flattened fibroblastic phenotype with distinct cell-cell interfaces to a substratum detached, rounded, and blebbed morphology.

[3] = test system: NF-kB DNA binding activity; assay: Electromobility shift assay for NF-kB DNA binding activity in rat hepatic stellate cells; settings: activated rat HSC; for TNF-α-inducible NF-kB DNA binding activity: 10 ng/mL TNF-α, same concentrations as for constitutive activity; for constitutive NF-kB DNA binding activity: gliotoxin 1.5 μmol/L, N-acetyl cysteine 5 mM, calpain inhibitor 1 50 μM, dexamethasone 0.5 μm, pentoxyfilline 3.6 mM
Procedure: Crude high salt extractable nuclear protein was prepared from activated hepatic stellate cells for analysis of NF-kB DNA binding activity essentially as described (Elsharkawy et al., supra), aliquoted and stored at −80° C. until required. Extract protein concentrations were determined using the Lowry colorimetric assay (Lowry et al., supra) with bovine serum albumin as standard. A double stranded 5′ end labeled radiolabeled oligonucleotide [sense 5′-[…]-[…] (SEQ ID NO:1)] containing a consensus NF-kB DNA binding site as underlined (Baldwin et al., Annu. Rev. Immunol., (1996) 14:649-681) was used to determine NFkB DNA binding activity in crude nuclear extracts (Elsharkawy et al., supra).
The effect of gliotoxin on NF-kB activity in hepatic stellate cells was investigated. Culture-activated (14-day) rat hepatic stellate cells were incubated in the presence or absence of 10 ng/mL TNF-α fifteen minutes after addition of:
After a further 30 minutes, and before any significant morphologic changes, cells were washed with ice-cooled PBS, nuclear extracts prepared, and NF-kB DNA binding activity assessed by gel shift analysis. […] Each lane contained […] of protein and the results were the same for at least three separate experiments.

rat hepatocytes [4] = assay: Rat hepatocyte viability by attachment and trypan blue exclusion; settings: 200 μmol/L, four hours
Procedure: Rat hepatocytes were isolated by collagenase perfusion essentially as previously described. (Harvey et al., Biochemical J., (1998) 331:273-281). Hepatocytes were cultured as outlined for hepatic stellate cells except that they were initially seeded onto collagen coated plates in William's medium E supplemented with 10% fetal calf serum and 1 μg/mL insulin for the first 2 hours.
as §2
The effect of various compounds on cell viability and attachment was determined. Viability of rat hepatocytes as judged by attachment and 0.1% (wt/vol) trypan blue exclusion after four hours treatment with: […]

rat hepatocytes [5] = assay: DNA laddering in rat hepatocytes; settings: four hours; 50 μmol/L gliotoxin, 200 μmol/L chlorpromazine, 200 μmol/L methapyrilene, 10 ng/mL TNF-α with cycloheximide
Procedure: as §1
DNA laddering was also used to compare the effect of gliotoxin, chlorpromazine, methapyrilene and also the combination of TNF-α with cycloheximide on hepatocytes and hepatic stellate cells.

[6] = test system: caspase 3 activity in rat hepatic stellate cells; assay: Caspase 3 (Ac-DEVD-pNA cleavage) activity in rat hepatic stellate cells; settings: 20 μmol/L Z-VAD-FMK with 1.5 μmol/L gliotoxin, three hours
Procedure: Hepatic stellate cells cultured in 100 mm diameter dishes (Greiner, Frickenhausen, Germany) were harvested and pelleted by centrifugation. The medium supernatant was discarded and the cell pellet was washed in 1 mL of ice-cooled phosphate buffered saline (PBS). Caspase 3 (DEVDase) activity was determined using a colorimetric CaspACE kit (Promega, Southampton, England) using the manufacturer's instructions.
Caspase 3 (Ac-DEVD-pNA cleavage) activity was then examined in control and gliotoxin-treated hepatic stellate cells. Culture activated rat hepatic stellate cells (14 days) in 100 mm diameter plates were treated with 0.05% (vol/vol) DMSO, 1.5 μmol/L gliotoxin, 20 μmol/L Z-VAD-FMK or 200 μmol/L chlorpromazine for three hours. The cells were then harvested for examination of caspase 3 activity as outlined in the materials and methods sections.

Structure (SMILES) | effect on gliotoxin-induced cleavage of DNA to a nucleosomal ladder [1] | effect on morphologic alterations / detachment caused by gliotoxin [2] | TNF-α-inducible NF-kB DNA binding activity [3] | constitutive NF-kB DNA binding activity [3] | also measured
N=C(N)NCc1cccc(I)c1 [m-iodobenzylguanidine] | prevented the cleavage of DNA to a nucleosomal ladder | did not prevent the detachment of hepatic stellate cells from the substratum | – | – | –
CC(=O)CCCCn1c(=O)c2c(ncn2C)n(C)c1=O [pentoxyfilline] | – | – | little effect | little effect | –
CC/C(=C(\c1ccccc1)c1ccc(OCCN(C)C)cc1)c1ccccc1 [tamoxifen] | prevented the cleavage of DNA to a nucleosomal ladder | did not prevent the detachment of hepatic stellate cells from the substratum | – | – | –
CN(C)CCN(Cc1cccs1)c1ccccn1 [methapyrilene] | – | – | – | – | hepatocytes that do not exclude trypan blue, compared with 50 μmol/L gliotoxin (rat hepatocytes [4]): a level similar; cleavage of hepatocyte DNA to a nucleosomal ladder (rat hepatocytes [5]): only hepatocytes treated with TNF-α and cycloheximide cleaved their DNA to a nucleosomal ladder
CCCC[C@@H](C=O)NC(=O)[C@H](CC(C)C)NC(=O)[C@H](CC(C)C)NC(C)=O [Calpain inhibitor 1] (Ac-Leu-Leu-[Nle]-aldehyde) | – | – | inhibited the formation and altered the mobilities | inhibited the formation and altered the mobilities | apoptosis judged by morphologic and biochemical criteria (caspase 3 induction, nucleosomal ladder) ([2]; 50 μM calpain inhibitor 1): did not result in the apoptosis of rat hepatic stellate cells
CC(=O)N[C@@H](CS)C(=O)O [N-acetyl cysteine] | – | – | little effect | little effect | –
COc1cc(N(CC(=O)OCOC(C)=O)CC(=O)OCOC(C)=O)c2nc(COc3cc(C)ccc3N(CC(=O)OCOC(C)=O)CC(=O)OCOC(C)=O)ccc2c1 [quin-2AM] | blocks DNA cleavage | without preventing cell detachment | – | – | –
COC(=O)C[C@H](NC(=O)[C@H](C)NC(=O)[C@@H](NC(=O)OCc1ccccc1)C(C)C)C(=O)CF [Z-VAD-FMK, benzyloxycarbonyl-Val-Ala-Asp-fluoromethylketone] (Cbz-Val-Ala-Asp(OMe)-CH2F) | – | did not prevent the morphologic alterations caused by gliotoxin | – | – | effect on gliotoxin-induced caspase 3 activity [6]: inhibited by cotreatment; inhibition of gliotoxin-induced nucleosomal ladder ([1]; Z-VAD-FMK 1 μmol/L with 1.5 μmol/L gliotoxin): substantial inhibition; inhibition of gliotoxin-induced nucleosomal ladder ([1]; Z-VAD-FMK 100 and 10 (m/L printed) with 1.5 μmol/L gliotoxin): inhibited completely
